Test results from PubChem BioAssay (NCI).
Several values for one entry are separate records, joined by “and”; a condition that tells them apart may be missing. Equal values may be shown once.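 Method: 48-hour compound exposure of cells in 96-well plates, five concentrations, linear interpolation of endpoints. GI50: concentration for 50% inhibition of growth. TGI is the concentration that stops growth completely.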

Assays:
Test in all cases: NCI anticancer screen, dose series, 48 h
[1] = system: M19-MEL melanoma
[2] = system: MOLT-4 leukemia
[3] = system: OVCAR-5 ovarian
[4] = system: K-562 leukemia
[5] = system: SNB-78 CNS
[6] = system: DMS 273 small cell lung
[7] = system: OVCAR-8 ovarian
[8] = system: DMS 114 small cell lung
[9] = system: U251 CNS
[10] = system: HL-60(TB) leukemia
[11] = system: BT-549 breast
[12] = system: DU-145 prostate

Cc1ccc(NC(=O)CC2SC(=Nc3cccc(Cl)c3C)NC2=O)cc1 (stereo not given)
TGI [1]: > 100 µM
TGI [2]: > 100 µM
TGI [3]: > 100 µM
TGI [4]: > 100 µM
TGI [5]: > 100 µM
TGI [6]: > 100 µM
TGI [7]: > 100 µM
TGI [8]: 96.6 µM
TGI [9]: > 100 µM

COc1cc(/C=C(\C)c2ccc3c(c2)OCO3)cc(OC)c1OC
TGI [1]: > 100 µM
TGI [2]: 75.9 µM
TGI [3]: > 100 µM
TGI [4]: > 100 µM
TGI [5]: > 100 µM
TGI [6]: 96.3 µM
TGI [10]: > 100 µM
TGI [7]: > 100 µM
TGI [8]: 87 µM
TGI [9]: > 100 µM

CN(CC(=O)O)S(=O)(=O)c1ccc(Cl)cc1
TGI [1]: > 100 µM
TGI [2]: > 100 µM
TGI [3]: > 100 µM
TGI [4]: > 100 µM
TGI [6]: > 100 µM
TGI [10]: > 100 µM
TGI [7]: > 100 µM
TGI [9]: > 100 µM

NC(=S)N/N=C/c1cn(CCCl)c2ccccc12
TGI [1]: > 100 µM
TGI [2]: > 100 µM
TGI [3]: > 100 µM
TGI [4]: > 100 µM
TGI [5]: > 100 µM
TGI [10]: 53.8 µM
TGI [7]: > 100 µM
TGI [8]: > 100 µM

OCC(O)COc1ccc(F)cc1 (stereo not given)
TGI [1]: > 100 µM
TGI [2]: > 100 µM
TGI [3]: > 100 µM
TGI [4]: > 100 µM
TGI [5]: > 100 µM
TGI [6]: > 100 µM
TGI [10]: > 100 µM
TGI [7]: > 100 µM
TGI [8]: > 100 µM
TGI [9]: > 100 µM

N#CCC(=O)N/N=C(/C(=O)Nc1ccccc1)C1C(=O)N(c2ccccc2)N=C1N (stereo not given)
TGI [1]: > 100 µM
TGI [2]: > 100 µM
TGI [3]: > 100 µM
TGI [4]: > 100 µM
TGI [5]: > 100 µM
TGI [6]: > 100 µM
TGI [10]: > 100 µM
TGI [7]: > 100 µM
TGI [8]: > 100 µM
TGI [9]: > 100 µM

c1ccc2c(CNCCCN3CCN(CCCNCc4cccc5ccccc45)CC3)cccc2c1
TGI [1]: 3.37 µM
TGI [2]: 2.92 µM
TGI [3]: 5.32 µM
TGI [5]: 4.59 µM
TGI [6]: 3.43 µM
TGI [10]: 3.45 µM
TGI [7]: 4.03 µM
TGI [8]: 3.46 µM
TGI [9]: 3.16 µM

COC(=O)C(=O)C(C(=O)C(=O)Nc1ccccc1C(N)=O)c1nc2ccc([N+](=O)[O-])cc2[nH]c1=O (stereo not given)
TGI [1]: > 100 µM
TGI [2]: > 100 µM
TGI [3]: > 100 µM
TGI [4]: > 100 µM
TGI [5]: > 100 µM
TGI [6]: > 100 µM
TGI [10]: > 100 µM
TGI [7]: > 100 µM
TGI [9]: > 100 µM

CC[C@@]1(O)C(=O)OCc2c1cc1n(c2=O)Cc2cc3c(OC)cccc3nc2-1
TGI [1]: 0.643 µM
GI50 [2]: 0.000417 µM
GI50 [3]: 0.0386 µM
TGI [3]: 7.13 µM
TGI [4]: 17.8 µM
TGI [6]: 1.14 µM
GI50 [10]: 0.00321 µM
TGI [7]: 1.9 µM
TGI [11]: > 39.8 µM
GI50 [12]: 0.00266 µM
TGI [8]: 0.28 µM
GI50 [9]: 0.00858 µM

CCOC(=O)c1cc2c(OC)cc(OC)cc2oc1=O
TGI [2]: > 100 µM
TGI [3]: > 100 µM
TGI [4]: > 100 µM
TGI [10]: > 100 µM
TGI [7]: > 100 µM
TGI [11]: > 100 µM
TGI [12]: > 100 µM
TGI [9]: > 100 µM

O=P1(O)c2ccccc2CSCc2ccccc21
TGI [2]: > 100 µM
TGI [3]: > 100 µM
TGI [4]: > 100 µM
TGI [10]: > 100 µM
TGI [7]: > 100 µM
TGI [11]: > 100 µM
TGI [12]: > 100 µM
TGI [9]: > 100 µM

Nc1n[nH]c2ccc([C@H]3[C@@H]4C5CCC(C5)[C@@H]4c4c(ccc5[nH]ncc45)N3S(=O)(=O)C3CC3)cc12 (stereo not given in full)
GI50 [2]: 0.184 µM
GI50 [3]: 0.272 µM
TGI [3]: 26.1 µM
GI50 [4]: 0.115 µM
GI50 [10]: 0.12 µM
TGI [10]: 0.996 µM
GI50 [7]: 0.213 µM
TGI [7]: > 41.1 µM
GI50 [11]: 0.34 µM
TGI [11]: 5.73 µM
GI50 [12]: 0.212 µM
TGI [12]: 26.7 µM
GI50 [9]: 0.208 µM
TGI [9]: 17.5 µM

CSc1nc(SC)c2cnn(-c3ccnc4cc(Cl)ccc34)c2n1
GI50 [2]: 42.5 µM
TGI [2]: > 89.6 µM
GI50 [3]: > 100 µM
TGI [3]: > 100 µM
GI50 [4]: > 61 µM
TGI [4]: > 100 µM
GI50 [10]: 21.5 µM
TGI [10]: 50.6 µM
GI50 [7]: > 56.5 µM
TGI [7]: > 100 µM
GI50 [11]: 43.3 µM
TGI [11]: > 87.7 µM
GI50 [12]: 42.6 µM
TGI [12]: > 67 µM
GI50 [9]: 45.4 µM
TGI [9]: > 100 µM

CCOC(=O)c1sc(Nc2cc(Cl)ccc2Cl)nc1C
TGI [1]: > 100 µM
TGI [2]: > 100 µM
TGI [3]: > 100 µM
TGI [4]: > 100 µM
TGI [5]: > 100 µM
TGI [10]: > 100 µM
TGI [7]: > 100 µM
TGI [8]: > 100 µM
TGI [9]: > 100 µM

Cc1cccc2c1NC(=O)[C@@H](NC(=O)[C@H](CCC(F)(F)F)[C@H](CCC(F)(F)F)C(N)=O)N=C2c1cccc(F)c1
GI50 [2]: > 100 µM
TGI [2]: > 100 µM
GI50 [3]: 86.4 µM
TGI [3]: > 100 µM
GI50 [4]: > 100 µM
TGI [4]: > 100 µM
GI50 [10]: > 100 µM
TGI [10]: > 100 µM
GI50 [7]: 30.5 µM
TGI [7]: > 100 µM
GI50 [11]: 16.2 µM
TGI [11]: 66.1 µM
GI50 [12]: 71.4 µM
TGI [12]: > 100 µM
GI50 [9]: 20.2 µM
TGI [9]: 59.2 µM

CCCC(c1cc(C(C)(C)C)c(O)cc1C)c1cc(C(C)(C)C)c(O)cc1C
TGI [2]: 5.41 µM
TGI [3]: 4.54 µM
TGI [4]: 6.43 µM
TGI [10]: 4.94 µM
TGI [7]: 12.9 µM
TGI [11]: 22.7 µM
TGI [12]: 14.7 µM
TGI [9]: 6.85 µM

CN1CCN(C(=O)OCc2nc3c(N4CCOCC4)nc(-c4ccccc4)nc3n2C)CC1
GI50 [2]: 0.526 µM
TGI [2]: 3.12 µM
GI50 [3]: 1.46 µM
TGI [3]: 3 µM
GI50 [4]: 0.512 µM
TGI [4]: 7.41 µM
GI50 [10]: 0.753 µM
TGI [10]: 2.66 µM
GI50 [7]: 1.17 µM
TGI [7]: 3.04 µM
GI50 [11]: 1 µM
TGI [11]: 2.25 µM
GI50 [12]: 1.19 µM
TGI [12]: 2.48 µM
GI50 [9]: 1.52 µM
TGI [9]: 3.17 µM

Nc1ncnc2occ(-c3ccc(NC(=O)Nc4cc(C(F)(F)F)ccc4F)cc3)c12
GI50 [2]: 7.47 µM and 3.7 µM
TGI [2]: 23.6 µM and 14.4 µM
GI50 [3]: 6.44 µM and 5.95 µM
TGI [3]: 16.2 µM and 13.7 µM
GI50 [4]: 2.18 µM and 0.972 µM
TGI [4]: 19 µM and > 25 µM
GI50 [10]: 6.88 µM and 6.16 µM
TGI [10]: 16 µM and 14.7 µM
GI50 [7]: 4.76 µM and 1.95 µM
TGI [7]: 16.6 µM and 5.76 µM
GI50 [11]: 6.83 µM and 3.42 µM
TGI [11]: 17.4 µM and 9.93 µM
GI50 [12]: 7.01 µM and 2.68 µM
TGI [12]: 21.1 µM and 9.28 µM
GI50 [9]: 7.26 µM and 4.26 µM
TGI [9]: 22.8 µM and 11.2 µM

Cc1cc2c(=O)cc(-c3ccc(Cl)c(Cl)c3)oc2c(C(=O)O)c1C
TGI [1]: > 100 µM
TGI [2]: > 100 µM
TGI [3]: > 100 µM
TGI [4]: > 100 µM
TGI [5]: > 100 µM
TGI [7]: > 100 µM
TGI [8]: > 100 µM
TGI [9]: > 100 µM

Cc1cc(S(=O)(=O)Nc2n[nH]c(-c3ccc(Cl)cc3)c2C#N)c(S)cc1Cl
GI50 [2]: > 100 µM
TGI [2]: > 100 µM
GI50 [3]: > 100 µM
TGI [3]: > 100 µM
GI50 [4]: > 100 µM
TGI [4]: > 100 µM
GI50 [10]: > 100 µM
TGI [10]: > 100 µM
GI50 [7]: > 100 µM
TGI [7]: > 100 µM
GI50 [11]: > 100 µM
TGI [11]: > 100 µM
GI50 [12]: > 100 µM
TGI [12]: > 100 µM
GI50 [9]: > 100 µM
TGI [9]: > 100 µM
